How the values were obtained:
[1] = target: T1, SLC35F4 (Homo sapiens, UniProt A4IF30)
T1 sequence (A4IF30 1-521): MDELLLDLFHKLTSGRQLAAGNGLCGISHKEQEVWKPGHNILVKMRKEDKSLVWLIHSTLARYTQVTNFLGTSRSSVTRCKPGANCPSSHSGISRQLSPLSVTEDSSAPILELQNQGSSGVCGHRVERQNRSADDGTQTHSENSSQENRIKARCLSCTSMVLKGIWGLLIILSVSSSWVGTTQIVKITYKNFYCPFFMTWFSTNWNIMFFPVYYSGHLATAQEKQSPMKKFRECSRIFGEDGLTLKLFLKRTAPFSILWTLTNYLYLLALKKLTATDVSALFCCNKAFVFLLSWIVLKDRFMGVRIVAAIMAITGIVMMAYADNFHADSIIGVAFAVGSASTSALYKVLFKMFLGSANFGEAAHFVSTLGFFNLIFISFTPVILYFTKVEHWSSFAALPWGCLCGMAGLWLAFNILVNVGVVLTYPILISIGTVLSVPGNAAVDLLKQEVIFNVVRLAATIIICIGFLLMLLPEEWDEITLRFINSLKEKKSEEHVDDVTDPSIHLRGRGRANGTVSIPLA

[2] = target: SLC35G4 (Homo sapiens, UniProt P0C7Q5); conditions: 2.5 μM, 2 min, HEK293
Protocol: (§1) Typically discussed substrates of the proton organic-cation antiporter ([14]) are highlighted in dark green in Figure 1.
(§2) In preparation for transport experiments, 24-well plates were pre-coated with poly-D-lysine (Sigma-Aldrich) and 300,000 cells were plated per well and incubated for 48 h. Firstly, the 24-well plate was placed on a heating plate at 37 °C, and the cells were washed with 37 °C HBSS^+ buffer (Hank’s balanced salt solution supplemented with 10 mM Hepes and adjusted to pH 7.4; Thermo Fisher Scientific). The substance-of-interest, which was diluted in 37 °C HBSS^+ to a desired concentration, was added to the cells for exactly 2 min. […] The uptake was stopped with ice-cold HBSS^+, and the 24-well plate was removed from the heating plate. The cells were washed twice with the cold HBSS^+ before they were lysed for 15 min with 80% (v/v) acetonitrile containing the respective internal standard for mass spectrometry. For variations in seeded cell numbers between the cell lines, several wells were lysed in RIPA buffer and used for total protein quantification using a bicinchoninic assay ([74]) and bovine serum albumin as calibration.
(§3) The intracellular drug concentrations after transport experiments were analyzed by high-performance liquid chromatography coupled to tandem mass spectrometry analysis. The HPLC consisted of a Shimadzu Nexera HPLC System with a SIL-30AC autosampler, a LC-30AD pump, a CTO-20AC column oven, and a CBM-20A controller (Shimadzu). The reverse-phase chromatography of compounds was accomplished with a Brownlee SPP RP-Amide column with 4.6 × 100 mm inner dimensions, a particle size of 2.7 μm, and a preceding Phenomenex C-18 guard column. The mobile phase was composed of an organic additive with acetonitrile:methanol 6:1 (v/v) in total concentrations between 3% and 50% (v/v) and 0.1% (v/v) formic acid in the aqueous component of the eluent. During separation, the column oven was held at 40 °C and the mobile phase was maintained at a flow rate of 300 or 400 μl/min. After separation, the detection of substances was performed with an API 4000 tandem mass spectrometer (AB SCIEX, https://sciex.com/support/software-support/software-downloads), followed by quantification of results with the Analyst software (AB SCIEX, version 1.6.2). The composition of chromatographic conditions, as well as detailed mass spectrometric detection parameters, are listed in Table S5.
(§4) Transport-mediated net uptake was determined as fold-increase of transporter-overexpressing cells over empty vector–transfected control cells.

[3] = target: SLC44A2 (Homo sapiens, UniProt Q8IWA5); conditions: 2.5 μM, 2 min, HEK293
Protocol: as §1, §2, §3, §4

[4] = target: SLC44A1 (Homo sapiens, UniProt Q8WWI5); conditions: 2.5 μM, 2 min, HEK293
Protocol: as §1, §2, §3, §4

[5] = target: T2, SLC35E1 (Homo sapiens, UniProt Q96K37); conditions: 2.5 μM, 2 min, HEK293
Protocol: as §1, §2, §3, §4

[6] = target: SLC35F3 (Homo sapiens, UniProt Q8IY50)
[7] = target: T3, SLC19A3 (Homo sapiens, UniProt Q9BZV2); experiment: Uptake ratio screen, SLC19A3-overexpressing HEK293 over empty vector cells; format: cell-based; conditions: 2.5 μM, 2 min
T3 construct: expressed in transfected cells
Protocol: as §1
In preparation for transport experiments, 24-well plates were pre-coated with poly-D-lysine (Sigma-Aldrich) and 300,000 cells were plated per well and incubated for 48 h. Firstly, the 24-well plate was placed on a heating plate at 37 °C, and the cells were washed with 37 °C HBSS^+ buffer (Hank’s balanced salt solution supplemented with 10 mM Hepes and adjusted to pH 7.4; Thermo Fisher Scientific). The substance-of-interest, which was diluted in 37 °C HBSS^+ to a desired concentration, was added to the cells for exactly 2 min. […] For variations in seeded cell numbers between the cell lines, several wells were lysed in RIPA buffer and used for total protein quantification using a bicinchoninic assay ([74]) and bovine serum albumin as calibration.
The intracellular drug concentrations after transport experiments were analyzed by high-performance liquid chromatography coupled to tandem mass spectrometry analysis. […] After separation, the detection of substances was performed with an API 4000 tandem mass spectrometer (AB SCIEX, https://sciex.com/support/software-support/software-downloads), followed by quantification of results with the Analyst software (AB SCIEX, version 1.6.2). […]

[8] = target: T4, SLC35E4 (Homo sapiens, UniProt Q6ICL7)
T4 sequence (Q6ICL7 1-350): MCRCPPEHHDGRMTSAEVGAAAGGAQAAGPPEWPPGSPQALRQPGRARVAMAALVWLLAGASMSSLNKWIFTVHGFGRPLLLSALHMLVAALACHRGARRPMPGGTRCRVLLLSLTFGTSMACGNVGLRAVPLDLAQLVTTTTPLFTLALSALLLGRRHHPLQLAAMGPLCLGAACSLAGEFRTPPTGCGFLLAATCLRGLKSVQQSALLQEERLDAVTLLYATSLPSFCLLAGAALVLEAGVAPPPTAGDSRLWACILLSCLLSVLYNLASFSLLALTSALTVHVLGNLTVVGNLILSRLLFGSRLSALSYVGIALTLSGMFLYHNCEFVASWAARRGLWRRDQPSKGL

[9] = target: T5, SLC19A2 (Homo sapiens, UniProt O60779); experiment: Uptake ratio screen, SLC19A2-overexpressing HEK293 over empty vector cells; format: cell-based; conditions: 2.5 μM, 2 min
T5 construct: expressed in transfected cells
T5 sequence (O60779 1-497): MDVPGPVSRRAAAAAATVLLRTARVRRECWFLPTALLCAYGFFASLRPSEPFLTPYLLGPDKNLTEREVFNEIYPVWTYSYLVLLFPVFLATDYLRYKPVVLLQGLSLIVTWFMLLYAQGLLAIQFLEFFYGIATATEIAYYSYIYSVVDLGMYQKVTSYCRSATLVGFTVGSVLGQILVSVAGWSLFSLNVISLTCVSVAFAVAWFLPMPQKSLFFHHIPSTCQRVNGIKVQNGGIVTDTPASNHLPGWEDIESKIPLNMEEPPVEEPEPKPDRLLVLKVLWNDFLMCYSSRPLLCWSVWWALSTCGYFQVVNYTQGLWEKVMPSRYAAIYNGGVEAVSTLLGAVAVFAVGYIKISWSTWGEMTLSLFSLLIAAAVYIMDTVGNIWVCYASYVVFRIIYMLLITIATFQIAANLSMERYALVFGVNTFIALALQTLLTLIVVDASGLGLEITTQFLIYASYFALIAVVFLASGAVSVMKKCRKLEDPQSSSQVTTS
Protocol: as §1, §2
The intracellular drug concentrations after transport experiments were analyzed by high-performance liquid chromatography coupled to tandem mass spectrometry analysis. The HPLC consisted of a Shimadzu Nexera HPLC System with a SIL-30AC autosampler, a LC-30AD pump, a CTO-20AC column oven, and a CBM-20A controller (Shimadzu). The reverse-phase chromatography of compounds was accomplished with a Brownlee SPP RP-Amide column with 4.6 × 100 mm inner dimensions, a particle size of 2.7 μm, and a preceding Phenomenex C-18 guard column. […] After separation, the detection of substances was performed with an API 4000 tandem mass spectrometer (AB SCIEX, https://sciex.com/support/software-support/software-downloads), followed by quantification of results with the Analyst software (AB SCIEX, version 1.6.2). […]
as §4

[10] = target: T1, SLC35F4; experiment: Uptake ratio screen, SLC35F4-overexpressing HEK293 over empty vector cells; format: cell-based; set-up: by amplifying the entire gene-of-interest within the HEK293 genome via a long-range PCR; conditions: 2.5 μM, 2 min
Protocol: as §1, §2, §3, §4

[11] = target: T2, SLC35E1

T2 sequence (Q96K37 whole entry): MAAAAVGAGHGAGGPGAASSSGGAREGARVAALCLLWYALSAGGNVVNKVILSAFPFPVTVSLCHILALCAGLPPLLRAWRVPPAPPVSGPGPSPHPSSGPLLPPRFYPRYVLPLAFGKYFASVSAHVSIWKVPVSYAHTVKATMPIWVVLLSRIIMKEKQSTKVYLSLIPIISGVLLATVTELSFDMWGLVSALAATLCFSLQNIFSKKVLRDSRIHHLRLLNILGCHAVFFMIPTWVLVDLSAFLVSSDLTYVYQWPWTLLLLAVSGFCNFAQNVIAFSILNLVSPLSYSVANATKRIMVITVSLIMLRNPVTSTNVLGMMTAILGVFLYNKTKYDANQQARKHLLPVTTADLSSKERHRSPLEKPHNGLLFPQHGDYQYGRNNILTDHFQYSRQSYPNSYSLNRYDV
Sequence of SLC44A2 (Q8IWA5 whole entry): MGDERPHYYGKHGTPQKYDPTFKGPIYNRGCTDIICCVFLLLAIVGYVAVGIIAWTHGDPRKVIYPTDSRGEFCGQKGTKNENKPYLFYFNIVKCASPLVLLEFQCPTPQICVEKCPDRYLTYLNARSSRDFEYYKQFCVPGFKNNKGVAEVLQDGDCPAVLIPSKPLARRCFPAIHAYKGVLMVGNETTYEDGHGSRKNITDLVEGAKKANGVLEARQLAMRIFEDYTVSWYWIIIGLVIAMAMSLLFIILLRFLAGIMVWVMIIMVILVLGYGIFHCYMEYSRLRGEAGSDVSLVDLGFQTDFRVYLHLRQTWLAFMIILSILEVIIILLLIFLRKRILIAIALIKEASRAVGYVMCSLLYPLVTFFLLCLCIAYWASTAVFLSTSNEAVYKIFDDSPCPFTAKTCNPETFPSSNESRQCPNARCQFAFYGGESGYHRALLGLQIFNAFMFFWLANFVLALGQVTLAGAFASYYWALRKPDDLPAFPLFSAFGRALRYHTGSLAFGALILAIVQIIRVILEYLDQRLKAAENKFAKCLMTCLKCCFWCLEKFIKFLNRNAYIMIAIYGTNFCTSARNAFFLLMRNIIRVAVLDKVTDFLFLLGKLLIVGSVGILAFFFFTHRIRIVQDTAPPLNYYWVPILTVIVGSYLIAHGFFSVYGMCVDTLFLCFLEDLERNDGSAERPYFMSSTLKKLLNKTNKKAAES
T3 sequence (Q9BZV2 whole entry): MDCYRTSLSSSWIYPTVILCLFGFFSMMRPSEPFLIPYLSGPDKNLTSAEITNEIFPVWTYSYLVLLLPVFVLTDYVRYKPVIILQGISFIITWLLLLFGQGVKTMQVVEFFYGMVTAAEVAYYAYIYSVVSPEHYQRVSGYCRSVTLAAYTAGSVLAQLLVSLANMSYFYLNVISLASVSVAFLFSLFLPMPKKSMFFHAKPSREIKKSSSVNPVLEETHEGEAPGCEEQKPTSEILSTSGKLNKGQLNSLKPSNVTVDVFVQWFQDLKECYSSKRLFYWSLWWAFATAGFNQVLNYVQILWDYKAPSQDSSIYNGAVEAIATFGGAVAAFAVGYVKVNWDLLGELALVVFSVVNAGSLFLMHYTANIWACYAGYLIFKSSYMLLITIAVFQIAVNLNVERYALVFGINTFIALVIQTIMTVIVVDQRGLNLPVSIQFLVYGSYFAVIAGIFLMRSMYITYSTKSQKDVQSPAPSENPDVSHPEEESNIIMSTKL
Sequence of SLC35F3 (Q8IY50 whole entry): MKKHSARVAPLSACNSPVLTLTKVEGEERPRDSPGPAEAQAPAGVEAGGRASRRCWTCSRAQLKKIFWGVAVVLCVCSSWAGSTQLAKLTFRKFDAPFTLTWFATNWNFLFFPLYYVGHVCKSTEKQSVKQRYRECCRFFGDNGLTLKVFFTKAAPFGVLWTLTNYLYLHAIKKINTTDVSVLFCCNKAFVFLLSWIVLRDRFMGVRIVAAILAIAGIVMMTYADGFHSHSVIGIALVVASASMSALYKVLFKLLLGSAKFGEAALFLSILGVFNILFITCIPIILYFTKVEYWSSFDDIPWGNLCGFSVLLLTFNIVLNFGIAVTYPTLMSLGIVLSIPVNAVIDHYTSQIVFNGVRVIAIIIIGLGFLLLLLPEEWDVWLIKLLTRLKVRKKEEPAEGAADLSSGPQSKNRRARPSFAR
Sequence of SLC35G4 (P0C7Q5 whole entry): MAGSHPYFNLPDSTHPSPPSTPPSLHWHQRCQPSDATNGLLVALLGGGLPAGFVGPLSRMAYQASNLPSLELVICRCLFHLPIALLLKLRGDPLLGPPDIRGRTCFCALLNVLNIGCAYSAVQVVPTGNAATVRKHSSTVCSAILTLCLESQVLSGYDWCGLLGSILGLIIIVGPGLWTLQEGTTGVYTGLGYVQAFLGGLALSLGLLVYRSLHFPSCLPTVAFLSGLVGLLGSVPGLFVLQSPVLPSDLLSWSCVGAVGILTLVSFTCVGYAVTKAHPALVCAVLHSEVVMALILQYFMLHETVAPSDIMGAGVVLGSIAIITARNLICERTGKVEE
Sequence of SLC44A1 (Q8WWI5 whole entry): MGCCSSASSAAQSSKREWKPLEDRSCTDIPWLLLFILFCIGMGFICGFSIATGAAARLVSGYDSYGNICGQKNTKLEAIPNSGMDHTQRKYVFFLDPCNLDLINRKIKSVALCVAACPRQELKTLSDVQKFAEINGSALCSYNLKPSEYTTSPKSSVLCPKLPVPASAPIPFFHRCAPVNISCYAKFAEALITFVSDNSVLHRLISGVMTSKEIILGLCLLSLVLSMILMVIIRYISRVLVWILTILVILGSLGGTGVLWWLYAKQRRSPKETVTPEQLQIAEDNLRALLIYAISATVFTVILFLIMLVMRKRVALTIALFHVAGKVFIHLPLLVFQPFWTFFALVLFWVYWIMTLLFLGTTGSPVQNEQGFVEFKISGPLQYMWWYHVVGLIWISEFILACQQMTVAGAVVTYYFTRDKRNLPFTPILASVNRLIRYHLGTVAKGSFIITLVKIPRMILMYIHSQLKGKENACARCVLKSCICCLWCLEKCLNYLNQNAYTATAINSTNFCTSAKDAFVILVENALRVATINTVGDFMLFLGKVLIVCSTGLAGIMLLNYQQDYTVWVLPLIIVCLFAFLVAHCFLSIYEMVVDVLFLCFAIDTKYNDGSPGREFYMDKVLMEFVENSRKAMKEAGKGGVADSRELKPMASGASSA

Clint (±SEM) [1]: 1.32 (±1.74) μl × mg protein^-1 × min^-1 | Uptake by SLC35G4 (in words) [2]: extensively enhanced the cell uptake | Uptake by SLC44A2 (CTL2) (in words) [3]: moderate choline uptake | Uptake by SLC44A1 (CTL1) (in words) [4]: moderate choline uptake | Uptake by SLC35E1 (in words) [5]: significantly enhanced | Clint (±SEM) [6]: 1.21 (±1.36) μl × mg protein^-1 × min^-1 | Uptake by SLC19A3 (in words) [7]: transports | Clint (±SEM) [8]: 0.17 (±0.36) μl × mg protein^-1 × min^-1 | Uptake by SLC19A2 (in words) [9]: enhance cell uptake | Uptake by SLC35F4 (in words) [10]: enhanced cell uptake | Clint (±SEM) [11]: 0.95 (±0.57) μl × mg protein^-1 × min^-1
SMILES: C[N+](C)(C)CCO [Choline]

Reference: paper PMC11406361, “Several orphan solute carriers functionally identified as organic cation transporters: Substrates specificity compared with known cation transporters” (The Journal of Biological Chemistry, 2024)
